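Results reflect a 48-hour exposure of cells in 96-well plates to compound at five concentrations. At the GI50, growth is halved.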 The source made the active and inactive calls. Rule as the data show it: active = GI50 up to about 1.1 µM and inactive = higher.
Experiments:
Assay in all cases: NCI anticancer screen, dose series, 48 h
[1] = system: RPMI-8226
[2] = system: OVCAR-3
[3] = system: TK-10
[4] = system: HCT-116
[5] = system: UO-31
[6] = system: SK-OV-3
[7] = system: MDA-MB-435
[8] = system: SF-268
[9] = system: OVCAR-5
[10] = system: NCI-H23
[11] = system: SF-295
[12] = system: UACC-257
[13] = system: HOP-62
[14] = system: OVCAR-8
[15] = system: SN12C
[16] = system: NCI-H226
[17] = system: A549
[18] = system: MOLT-4
[19] = system: SK-MEL-5
[20] = system: MDA-MB-231

Measured: GI50

O=C(CCCn1ccnc1[N+](=O)[O-])NCCn1cnc([N+](=O)[O-])c1
inactive: [1] > 100 µM | [2] > 100 µM | [3] > 100 µM | [4] > 100 µM | [5] > 100 µM | [6] > 100 µM | [7] > 100 µM | [8] > 100 µM | [9] > 100 µM | [10] > 100 µM | [11] > 100 µM | [12] > 100 µM | [13] > 100 µM | [14] > 100 µM | [15] > 100 µM | [16] > 100 µM | [17] > 100 µM | [18] > 100 µM | [19] > 100 µM

NC1=Nc2ccccc2Sc2nc3ccccc3n21
inactive: [1] 4.46 µM | [2] 8.02 µM | [3] > 100 µM | [4] 5.47 µM | [5] 7.5 µM | [6] 17.1 µM | [8] 18.4 µM | [9] 8.15 µM | [20] 19.1 µM | [10] 25.5 µM | [11] 43.3 µM | [12] 26.1 µM | [13] 52.5 µM | [15] 48.2 µM | [16] 10.4 µM | [17] 26.7 µM | [18] 4.54 µM | [19] 5.4 µM

C=C1CCC2C(C)(CO)C(O)CCC2(C)C1CC(O)C1=CCOC1=O (centres undefined)
inactive: [1] > 100 µM | [2] 26.5 µM | [3] > 100 µM | [4] 26.5 µM | [5] > 100 µM | [6] 51.5 µM | [8] > 100 µM | [9] > 100 µM | [10] > 100 µM | [11] 46.2 µM | [12] > 100 µM | [13] > 100 µM | [14] 36.1 µM | [15] 31.4 µM | [16] 45.2 µM | [17] 55.2 µM | [18] > 100 µM | [19] 77.1 µM

CCCC/C=C/C1Cc2ccccc2CN1S(=O)(=O)c1ccc(C)cc1 (centres undefined)
inactive: [1] 2.07 µM | [2] 9.57 µM | [3] 20.9 µM | [4] 1.6 µM | [5] 5.6 µM | [6] 26.6 µM | [8] 10.2 µM | [9] 12.5 µM | [10] 4.27 µM | [11] 13.9 µM | [12] 4.25 µM | [13] 31.5 µM | [14] 11.3 µM | [15] 10.6 µM | [16] 10 µM | [17] 5.33 µM | [18] 3.97 µM | [19] 3.28 µM

c1ccc(N2N=NC3C4CC(C5c6ccccc6C45)C32)cc1 (centres undefined)
inactive: [1] 18.4 µM | [2] 26.6 µM | [3] > 100 µM | [4] 24.7 µM | [5] 28.2 µM | [6] 31.5 µM | [8] 34.8 µM | [9] 44.6 µM | [10] 24 µM | [11] 38.4 µM | [12] 24.2 µM | [13] 64.4 µM | [14] 57.7 µM | [15] 33.6 µM | [16] 37.8 µM | [17] 33.8 µM | [18] 17.1 µM | [19] 18.7 µM

O=C(OCCOCBr)c1ccccc1
inactive: [1] > 100 µM | [2] > 100 µM | [3] > 100 µM | [4] > 100 µM | [5] > 100 µM | [6] > 100 µM | [8] > 100 µM | [9] > 100 µM | [10] > 100 µM | [11] > 100 µM | [12] > 100 µM | [13] > 100 µM | [14] > 100 µM | [15] > 100 µM | [16] > 100 µM | [17] > 100 µM | [18] > 100 µM | [19] > 100 µM

O=C(CCC(=O)Nc1ccc(Cl)c(Cl)c1)Cc1nc2ccccc2o1
inactive: [1] > 100 µM | [2] 29.3 µM | [3] > 100 µM | [4] > 100 µM | [5] > 100 µM | [6] > 100 µM | [8] > 100 µM | [9] > 100 µM | [10] > 100 µM | [11] > 100 µM | [12] > 100 µM | [13] > 100 µM | [14] > 100 µM | [15] > 100 µM | [16] > 100 µM | [17] > 100 µM | [18] > 100 µM | [19] > 100 µM

CNC1=C(C)C(=O)C(C)=C(C(C)(C)CC(=O)n2cc(F)c(=O)[nH]c2=O)C1=O
inactive: [1] 6.81 µM | [2] 38.5 µM | [3] > 59.3 µM | [4] 8.2 µM | [5] 24.3 µM | [6] > 100 µM | [8] 55.7 µM | [9] > 100 µM | [10] 7.5 µM | [11] > 67.9 µM | [12] 68.2 µM | [13] 3.97 µM | [14] 31.6 µM | [15] 8.67 µM | [16] 43.4 µM | [17] 5.09 µM | [18] 26.7 µM | [19] 12.3 µM

C=CC[C@@]1(C#N)C[C@H](C[C@]2(C#N)C[C@H](CCl)OC(C)(C)O2)OC(C)(C)O1
inactive: [1] 52.5 µM | [2] > 100 µM | [3] > 100 µM | [4] 55.2 µM | [5] 43 µM | [6] > 100 µM | [8] > 100 µM | [9] > 100 µM | [10] > 100 µM | [11] > 100 µM | [12] 94.8 µM | [13] > 100 µM | [14] > 100 µM | [15] > 100 µM | [16] 38.4 µM | [17] > 100 µM | [18] 72.8 µM | [19] 63.5 µM

COC(=O)/C([Se]c1c(C)cc(C)cc1C)=C(\[Se]c1c(C)cc(C)cc1C)C(=O)OC
inactive: [1] > 100 µM | [2] > 100 µM | [3] > 100 µM | [4] > 100 µM | [5] > 100 µM | [6] > 100 µM | [8] > 100 µM | [9] > 100 µM | [10] > 100 µM | [11] > 100 µM | [12] > 100 µM | [13] > 100 µM | [14] > 100 µM | [15] > 100 µM | [16] > 100 µM | [17] > 100 µM | [18] > 100 µM | [19] > 100 µM

[O-][N+]1=C(c2ccccc2)COc2ccccc21
inactive: [1] 67.5 µM | [2] > 100 µM | [3] > 100 µM | [4] > 100 µM | [5] > 100 µM | [6] > 100 µM | [8] > 100 µM | [9] > 100 µM | [10] > 100 µM | [11] > 100 µM | [12] > 100 µM | [13] > 100 µM | [14] > 100 µM | [15] > 100 µM | [16] > 100 µM | [17] > 100 µM | [18] > 100 µM | [19] > 100 µM

From ChEMBL document CHEMBL1201862, “PubChem BioAssay data set” (2004)
